Assays:
Type in all cases: biochemical
P145-ST [1] = biological target: T1, P145-ST (Photobacterium leiognathi, UniProt A8R0T5); assay: HPLC of AA-lactose released from AA-6'-sialyllactose (sialidase activity); details: 50 μM AA-6'-sialyllactose, 100 mM sodium phosphate pH 6.0, 37°C, 2 h
T1 construct: gene plst6; residues 16-497 with catalytic domain, pColdII N-terminal His-tag (kept), codon-optimised gene, E. coli BL21, Ni-NTA
T1 sequence (A8R0T5 16-497): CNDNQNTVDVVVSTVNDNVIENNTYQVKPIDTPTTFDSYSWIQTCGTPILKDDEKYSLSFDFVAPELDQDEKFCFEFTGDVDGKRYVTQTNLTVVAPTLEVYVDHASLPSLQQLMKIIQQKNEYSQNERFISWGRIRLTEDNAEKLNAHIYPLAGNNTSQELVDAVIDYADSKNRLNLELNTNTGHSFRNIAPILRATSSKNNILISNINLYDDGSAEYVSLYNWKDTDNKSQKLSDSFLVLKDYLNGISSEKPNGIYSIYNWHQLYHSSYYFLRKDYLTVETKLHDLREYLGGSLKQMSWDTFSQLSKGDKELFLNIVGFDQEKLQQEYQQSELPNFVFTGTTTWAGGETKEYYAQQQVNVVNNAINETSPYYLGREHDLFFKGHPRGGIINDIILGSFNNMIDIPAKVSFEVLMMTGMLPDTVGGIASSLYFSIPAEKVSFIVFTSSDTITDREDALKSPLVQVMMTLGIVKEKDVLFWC

P224-ST [2] = biological target: T2, P224-ST (Photobacterium sp. JT-ISH-224, UniProt A8QYL1); assay: as above; details: 1 mM, 50 μM AA-6'-sialyllactose, 100 mM sodium phosphate pH 6.0, 37°C, 2 h
T2 construct: gene pst6-224; residues 18-514 with catalytic domain, pColdII N-terminal His-tag (kept), codon-optimised gene, E. coli BL21, Ni-NTA
T2 sequence (A8QYL1 18-514): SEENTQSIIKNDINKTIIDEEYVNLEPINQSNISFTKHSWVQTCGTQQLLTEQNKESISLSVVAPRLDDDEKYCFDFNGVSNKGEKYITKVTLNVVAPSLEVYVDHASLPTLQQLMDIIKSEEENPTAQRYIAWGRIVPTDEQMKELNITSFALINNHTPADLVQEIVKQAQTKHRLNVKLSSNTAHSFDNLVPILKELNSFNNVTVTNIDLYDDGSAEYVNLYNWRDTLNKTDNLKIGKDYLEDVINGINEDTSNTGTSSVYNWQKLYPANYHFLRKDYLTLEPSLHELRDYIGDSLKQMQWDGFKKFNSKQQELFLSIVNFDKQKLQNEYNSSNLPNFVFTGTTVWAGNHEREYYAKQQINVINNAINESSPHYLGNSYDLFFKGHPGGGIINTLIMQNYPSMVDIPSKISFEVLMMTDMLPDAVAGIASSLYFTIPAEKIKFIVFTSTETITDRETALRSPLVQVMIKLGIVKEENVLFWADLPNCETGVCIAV

Pd-ST [3] = biological target: T3, Pd-ST (Photobacterium damselae, UniProt O66375); assay: as above; details: 1 mM, 50 μM AA-6'-sialyllactose, 100 mM sodium phosphate pH 6.0, 37°C, 2 h
T3 construct: gene bst; residues 16-497 with catalytic domain, pColdII N-terminal His-tag (kept), codon-optimised gene, E. coli BL21, Ni-NTA
T3 sequence (O66375 16-497): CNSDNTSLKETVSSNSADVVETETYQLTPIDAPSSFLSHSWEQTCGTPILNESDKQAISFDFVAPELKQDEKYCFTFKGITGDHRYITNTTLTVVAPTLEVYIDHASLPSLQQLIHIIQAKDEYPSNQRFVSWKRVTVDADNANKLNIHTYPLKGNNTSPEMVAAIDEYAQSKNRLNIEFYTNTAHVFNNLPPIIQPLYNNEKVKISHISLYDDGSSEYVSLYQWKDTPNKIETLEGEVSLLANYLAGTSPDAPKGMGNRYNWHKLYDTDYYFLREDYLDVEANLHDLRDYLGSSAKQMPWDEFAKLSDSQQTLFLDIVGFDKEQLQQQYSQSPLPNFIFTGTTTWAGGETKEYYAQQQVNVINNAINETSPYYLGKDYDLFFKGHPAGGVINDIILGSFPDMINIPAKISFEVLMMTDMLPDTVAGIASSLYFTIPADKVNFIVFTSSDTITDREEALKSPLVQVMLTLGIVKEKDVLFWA

P224-ST [4] = biological target: T2, P224-ST; assay: HPLC of sialylated AA-glycans, Michaelis-Menten fit; details: sialyltransferase; 0.5 mM CMP-Neu5Ac, 100 mM Tris-HCl pH 8.0, 30°C, 5 min; labelled compound; read-out: apparent Km
From the text: HPLC of sialylated AA-glycans, Michaelis-Menten fit on P224-ST | The apparent Km values of Pd-, P224-, and P145-ST for G2-AA substrate are […]

Pd-ST [5] = biological target: T3, Pd-ST; assay: as above; details: sialyltransferase; 0.5 mM CMP-Neu5Ac, 100 mM Tris-HCl pH 8.0, 30°C, 5 min; labelled compound; read-out: apparent Km
P145-ST [6] = biological target: T1, P145-ST; assay: as above; details: sialyltransferase; 0.5 mM CMP-Neu5Ac, 100 mM Tris-HCl pH 8.0, 30°C, 5 min; labelled compound; read-out: apparent Km
From the text: HPLC of sialylated AA-glycans, Michaelis-Menten fit on P145-ST | The apparent Km values of Pd-, P224-, and P145-ST for G2-AA substrate are […]

P145-ST [7] = biological target: T1, P145-ST; assay: HPLC of AA-lactose released from AA-6'-sialyllactose (sialidase activity); details: inhibitor of sialidase activity, 0.01-10 mM; 50 μM AA-6'-sialyllactose, 100 mM sodium phosphate pH 6.0, 37°C, 2 h
[8] = inhibitor of sialidase activity
[9] = activator of sialidase activity

## Nc1ccn([C@@H]2O[C@H](COP(=O)(O)OP(=O)(O)OP(=O)(O)O)[C@@H](O)[C@H]2O)c(=O)n1 [CTP]
P145-ST [1]; [8]
  % lactose formed at 10 mM: 2%
P224-ST [2]; [8]
  HPLC of AA-lactose released from AA-6'-sialyllactose (sialidase activity): all other tested nucleotides including CDP, CTP, and cytidine showed decreasing effects
Pd-ST [3]; [8]
  HPLC of AA-lactose released from AA-6'-sialyllactose (sialidase activity): all other tested nucleotides including CDP, CTP, and cytidine showed decreasing effects

## CC(=O)N[C@H]1[C@H](O[C@@H]([C@H](O)[C@H](CNc2ccccc2C(=O)O)NC(C)=O)[C@H](O)CO)O[C@H](CO)[C@@H](O[C@@H]2O[C@H](CO[C@H]3O[C@H](CO)[C@@H](O)[C@H](O)[C@@H]3O[C@@H]3O[C@H](CO)[C@@H](O[C@@H]4O[C@H](CO)[C@H](O)[C@H](O)[C@H]4O)[C@H](O)[C@H]3NC(C)=O)[C@@H](O)[C@H](O[C@H]3O[C@H](CO)[C@@H](O)[C@H](O)[C@@H]3O[C@@H]3O[C@H](CO)[C@@H](O[C@@H]4O[C@H](CO)[C@H](O)[C@H](O)[C@H]4O)[C@H](O)[C@H]3NC(C)=O)[C@@H]2O)[C@@H]1O [G2-AA, AA-labeled G2 glycan]
P224-ST [4]
  Km: 39.2 ± 4.7 µM
Pd-ST [5]
  Km: 36.1 ± 4.9 µM
P145-ST [6]
  Km: 27.8 ± 5.8 µM

## Nc1ccn([C@@H]2O[C@H](COP(=O)(O)OP(=O)(O)O)[C@@H](O)[C@H]2O)c(=O)n1 [CDP]
P224-ST [2]; [8]
  HPLC of AA-lactose released from AA-6'-sialyllactose (sialidase activity): all other tested nucleotides including CDP, CTP, and cytidine showed decreasing effects
P145-ST [7]
  HPLC of AA-lactose released from AA-6'-sialyllactose (sialidase activity): CTP and CDP inhibited sialidase activity in a concentration-dependent manner
Pd-ST [3]; [8]
  HPLC of AA-lactose released from AA-6'-sialyllactose (sialidase activity): all other tested nucleotides including CDP, CTP, and cytidine showed decreasing effects

## Nc1ccn([C@@H]2O[C@H](CO)[C@@H](O)[C@H]2O)c(=O)n1 [cytidine]
P224-ST [2]; [8]
  HPLC of AA-lactose released from AA-6'-sialyllactose (sialidase activity): all other tested nucleotides including CDP, CTP, and cytidine showed decreasing effects
P145-ST [7]
  HPLC of AA-lactose released from AA-6'-sialyllactose (sialidase activity): cytidine appeared to inhibit sialidase activity in an on-and-off mode
Pd-ST [3]; [8]
  HPLC of AA-lactose released from AA-6'-sialyllactose (sialidase activity): all other tested nucleotides including CDP, CTP, and cytidine showed decreasing effects

## Nc1ccn([C@@H]2O[C@H](COP(=O)(O)O)[C@@H](O)[C@H]2O)c(=O)n1 [CMP]
P145-ST [1]; [9]
  % lactose formed at 10 mM: 43%
P224-ST [2]; [9]
  HPLC of AA-lactose released from AA-6'-sialyllactose (sialidase activity): the addition of CMP increased the sialidase activity
Pd-ST [3]; [9]
  HPLC of AA-lactose released from AA-6'-sialyllactose (sialidase activity): the addition of CMP increased the sialidase activity

Reference: paper PMC4521712, “Enhanced Bacterial α(2,6)-Sialyltransferase Reaction through an Inhibition of Its Inherent Sialidase Activity by Dephosphorylation of Cytidine-5'-Monophosphate” (PLoS ONE, 2015)
